Test [1] relates to neurotransmitter release in right corpus striatum. The test is described as follows: Microdialysis of right corpus striatum of UMP-fed rats before, during and after potassium depolarization. In kind it is in vivo, rat. To be noted: striatal microdialysate. On the procedure: (§1) Retired breeder rats consumed a diet containing normal chow (Harlan Tech Lad, Madison, Wis.) supplemented with or without uridine 5′-monophosphate (UMP) (2.5%, w/w)—at a final concentration of 500 mg/kg/day, for a period of six weeks. Microdialysis was performed with cannulas implanted directly within the right corpus striatum of the control and treated rats. Cannulas were implanted on day 1, and samples were collected on days 3 and 4. Micro-dialysates (22.5 microliter, collected over 15 minutes) were assayed for dopamine (DA), 3,4-dihydroxyphenylacetic acid (DOPAC), homovanillic acid (HVA), 5-hydroxy-tryptamine (5-HT) and 5-hydroxyindoleacetic acid (5-HIAA). Real-time neurotransmitter level measurements were taken on samples drawn prior to and following depolarization of the neuron membrane via local application of […] potassium chloride (KCl) solution. Animals were then sacrificed, and striatum, hippocampus and temporal cortex were assayed for DA, DOPAC, HVA, 5HT, 5HIAA, DNA, protein and phosphatidyl choline (PC) content. DA and metabolites in dialysates and tissue samples were determined using an ESA Coulochem 11 5100A detector (E1=−175 mV; E2=+325 mV; Eguard=350 mV) with an ESA Microdialysis Cell (model 5014B, ESA, North Chelmsford, Mass.). The mobile phase (MD-TM, ESA) consisted of 75 mM NaH2PO4, 1.7 mM 1-octanesulfonic acid, 100 ?l/L Triethylamine, 25 ?M EDTA, 10% acetonitrile, pH 3.0. The flow rate was 0.4 mL/min. The column (ESA MD 150, 3×150 mm, 3 ?m, 120 Å) was kept in a 40° C. column oven. Samples were injected to HPLC by an Alltech 580 autosampler (Alltech, Deerfield, Ill.) and maintained to 4° C. with a cooling tray during analysis. Data were captured by Alltech AllChrom™ data system, and analyzed with AllChrom plus™ software. A timeline program, which could change the detection gain during sample separation and detection, was used to make it possible to get low DA and high metabolites concentration data in dialysate through one injection. Real-time neurotransmitter levels were assayed by measuring the faradaic current at the respective oxidation potentials with a carbon fiber electrode inserted through the cannula.

The next test concerns striatum. Nature of the test: Total tissue content of DA, 5-HT and metabolites in striatum after sacrifice. The test is classed as in vivo, rat. To be noted: UMP-fed rats vs control. The protocol: as §1, with “injection.” for “injection. Real-time neurotransmitter levels were assayed by measuring the faradaic current at the respective oxidation potentials with a carbon fiber electrode inserted through the cannula.”

Where [2] appears, read: UMP-fed rat vs control, before stimulation.
Where [3] appears, read: UMP-fed rat vs control, during and after stimulation.
The mark [4] stands for this setting: rats fed UMP 2.5% w/w in chow (500 mg/kg/day) for six weeks, depolarization by local 100 nm KCl, vs control rat.
The mark [5] stands for this setting: striatum and striatal extracellular fluid (ECF).

In the case of `O=c1ccn([C@@H]2O[C@H](COP(=O)(O)O)[C@@H](O)[C@H]2O)c(=O)[nH]1` [UMP, uridine 5′-monophosphate], in test [1] (setting [2]), the “basal level of 5-HIAA” value was “lower basal levels”, the “basal level of DOPAC” value is listed as “lower basal levels” and the “basal level of HVA” value is “lower basal levels”. For the same compound, in test [1] (setting [3]), the “release of 5-HIAA on potassium stimulation” value was “increased, although by a smaller margin than DA and 5-HT, after but not during stimulation”; the “release of DOPAC on potassium stimulation” value is “increased, although by a smaller margin than DA and 5-HT, after but not during stimulation”; the “release of HVA on potassium stimulation” value was “increased, although by a smaller margin than DA and 5-HT, after but not during stimulation”. In addition, in test [1] (setting [4]), the “release of 5-HT during and after depolarization” value is “enhanced”; the “release of DA during and after depolarization” value is “enhanced”. Besides, the “release of DA during and after depolarization” value in test [1] (rats fed UMP 2.5% w/w in chow (500 mg/kg/day) for six weeks, depolarization by local 100 nm KCl, vs control rat, listed as uridine monophosphate) was “significantly enhanced”. Besides, in the test on striatum (striatal tissue), the “total level of 5-HT in the striatum” value is listed as “did not affect” and the “total level of DA in the striatum” value is reported as “did not affect”. In the test on striatum (setting [5]), the “total striatal level of 5-HIAA” value is “slightly reduced”, the “total striatal level of DOPAC” value is “slightly reduced” and the “total striatal level of HVA” value is listed as “slightly reduced”. In addition, the “total striatal levels of DA metabolites” value in the test on striatum (summary statement) is given as “decreased”.

The record behind these values is US9572830B2, “Uridine effects on dopamine release” (MASSACHUSETTS INSTITUTE OF TECHNOLOGY, priority 2004, dated 2017).
